Counter-ions that a name gives are not always drawn.
These compounds were tested against T1, SMO (Mus musculus, UniProt P56726) (assay: Smoothened (SMO)/Sonic Hedgehog (SHh) Transient Transcriptional Activation Assay (Gli-luciferase reporter in C3H10T1/2 cells)). Conditions: 2 μM test compound, SHh 250 ng/ml, 20 hrs.
T1 construct: endogenous in cells; host or cells: C3H10T1/2 (ATCC #CCL-226)
Assay type: cell-based, murine
Experimental: As noted above, the compounds of the invention are useful as inhibitors of SMO. Methods for determining the in vitro activity of these compounds are described below: Smoothened (SMO)/Sonic Hedgehog (SHh) Transient Transcriptional Activation Assay
On Day 1,2×10^6 C3H10T1/2 cells (ATCC #CCL-226) were split and seeded in 12 mls of growth medium Basal Medium Eagle (BME, Invitrogen #21010-046) supplemented with 2 mM L-glutamine (Invitrogen #25030-081), 0.1 units/ml penicillin and 0.1 ug/ml streptomycin (Invitrogen #15140-122), and 10% Fetal Bovine Serum (FBS, Invitrogen #16140-071) in a T-75 flask (Costar #3376). They were allowed to attach for 4 hours at 37° C., 5% CO2. The cells were then transfected using Fugene 6 (Roch #11 814 443 001) in the following reaction: 48 ul Fugene 6 and 745 ul Opti-MEM (Invitrogen #31985-070) were mixed and allowed to sit at room temperature for 5 minutes. 8 ug of pGL4.14/mGli(CS) DNA (10× murine Gli response elements and minimal CS promoter) and 0.5 ug of pEGFP DNA (Clontech) were added, gently mixed and incubated at room temperature for 20 minutes. This entire transfection mix was then added to the T-75 flask containing the cells. The cells were incubated at 37 °C, 5% C02 for 18-24 hrs.
On Day 2, the transfected cells were trypsinized and seeded into white 96 well plates (Costar #3917) in 100ul/well of growth medium at a concentration of 20,000 cells/well. The cells were allowed to recover for 4 hrs before adding serum starvation medium Dulbecco's Modified Eagle Medium (DMEM, Invitrogen #21063-029) supplemented with 2 mM L-glutamine, 0.1 units/ml penicillin and 0.1 ug/ml streptomycin, and 0.5% Calf Serum (CS, Invitrogen #26170-043). The growth media was aspirated off, and the cells were rinsed with 100 ul of starvation media. 95 ul of starvation media was then added to each well. The cells were incubated for 20 hrs at 37 °C, 5% C02.
On Day 3, cells were dosed with test compounds at a final concentration ranging from 2 uM to 2 nM. Immediately after dosing cells with compounds, recombinant human sonic hedgehog (SHh, R&D Systems #1845-SH) was add to a final concentration of 250 ng/ml. A 25 ug vial of SHh was reconstituted with 250 ul PBS/0.1% BSA to give a 100 ng/ul working stock. This working stock was then diluted 1:20 in starvation media. The transfected cells were incubated with compounds and SHh for 20 hrs at 37 °C, 5% C02.
Luciferase assays were conducted on Day 4 using Dual-Glo Luciferase assay system (Promega #E2940) according to Promega's protocol. Briefly, Dual-Glo luciferase reagent was made up and 100 uls were added to each well of the 96 well plate containing media. Plates were shaken at room temperature for 10 minutes, and then read on TopCount (Perkin-Elmer). The luminescence was recorded.

T1 sequence (P56726 33-793): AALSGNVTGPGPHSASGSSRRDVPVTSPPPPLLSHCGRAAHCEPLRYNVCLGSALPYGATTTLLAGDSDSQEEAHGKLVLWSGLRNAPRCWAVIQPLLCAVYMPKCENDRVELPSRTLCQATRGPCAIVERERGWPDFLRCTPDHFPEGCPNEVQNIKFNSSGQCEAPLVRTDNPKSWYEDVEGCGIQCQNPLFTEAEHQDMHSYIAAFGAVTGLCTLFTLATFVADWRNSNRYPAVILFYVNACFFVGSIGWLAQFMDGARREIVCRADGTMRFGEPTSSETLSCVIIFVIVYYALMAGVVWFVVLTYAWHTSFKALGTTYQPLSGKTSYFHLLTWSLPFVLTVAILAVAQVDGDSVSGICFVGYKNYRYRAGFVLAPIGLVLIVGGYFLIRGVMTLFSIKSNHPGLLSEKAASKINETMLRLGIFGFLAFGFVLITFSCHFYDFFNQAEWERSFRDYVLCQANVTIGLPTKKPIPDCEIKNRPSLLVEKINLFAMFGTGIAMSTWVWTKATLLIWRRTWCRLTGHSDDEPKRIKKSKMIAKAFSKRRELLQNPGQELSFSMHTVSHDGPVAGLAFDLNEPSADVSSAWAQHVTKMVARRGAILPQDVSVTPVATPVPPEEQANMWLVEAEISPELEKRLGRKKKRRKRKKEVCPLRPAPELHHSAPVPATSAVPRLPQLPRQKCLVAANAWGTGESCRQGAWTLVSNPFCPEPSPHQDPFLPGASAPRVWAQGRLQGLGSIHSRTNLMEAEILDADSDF

Row | SMILES | SMO CELL % INHIBITION @ 2 μM [%]
1 | O=C(Cn1ccc2sccc2c1=O)NC1CCCC(c2nc3ccccc3[nH]2)C1 (stereo not drawn) [Example 128, N-[3-(1H-benzimidazol-2-yl)cyclohexyl]-2-(4-oxothieno[3,2-c]pyridin-5(4H)-yl)acetamide triflouroacetate] | 100

Same assay, conditions: 2 μM test compound, SHh 250 ng/ml, 20 hrs, HCl, 2 µM

Row | SMILES | SMO CELL % INHIBITION @ 2 μM [%]
2 | O=C(NC12CCCC(c3nc4cc(C(F)(F)F)ccc4[nH]3)(C1)C2)c1cc2c(cn1)OCCO2 [Example 264, N-{5-[5-(trifluoromethyl)-1H-benzimidazol-2-yl]bicyclo[3.1.1]hept-1-yl}-2,3-dihydro[1,4]di-oxino[2,3-c]pyridine-7-carboxamide HCl] | 94.31

Same assay, conditions: C3H 10T1/2, 2 uM test compound, SHh 250 ng/ml, 20 hrs, read-out: SMO % inhibition at 2 uM

Row | SMILES | inhibition at 2 µM [%]
3 | N#Cc1ccc2nc(C3CCCC(NC(=O)c4ccc5c(c4)OCCO5)C3)[nH]c2c1 (stereo not drawn) [Example 19, N-(3-(5-Cyano-1H-benzo[d]imidazol-2-yl)cyclohexyl]-2,3-dihydrobenzo[b][1,4]dioxine-6-carboxamide] | 100
4 | CN(C)Cc1ccc2nc([C@H]3CCC[C@@H](NC(=O)c4ccc5c(c4)OCCO5)C3)[nH]c2c1 [Example 44, N-((1R,3S)-3-(5-((Dimethylamino)methyl)-1H-benzo[d]imidazol-2-yl)cyclohexyl)-2,3-dihydrobenzo[b][1,4]dioxine-6-carboxamide] | 107
5 | COc1cc(OC)cc(C(=O)N[C@@H]2CCC[C@H](c3nc4ccc(C(F)(F)F)cc4[nH]3)C2)c1 [Example 4, 3,5-Dimethoxy-N-((1R,3S)-3-[5-(trifluoromethyl)-1H-benzo[d]imidazol-2-yl)cyclohexyl)benzamide] | 105
6 | O=C(Cc1nc2ccc(Cl)cc2[nH]1)NC1CCCC(c2nc3ccccc3[nH]2)C1 (stereo not drawn) [Example 46, N-(3-(1H-Benzo[d]imidazol-2-yl)cyclohexyl)-2-(6-chloro-1H-benzo[d]imidazol-2-yl)acetamide] | 108

Same assay, conditions: C3H 10T1/2, 2 μM test compound, SHh 250 ng/ml, 20 hrs, read-out: SMO CELL % INHIBITION @ 2 μM

Row | SMILES | inhibition at 2 µM [%]
7 | O=C(NC12CCCC(c3nc4ccccc4[nH]3)(C1)C2)c1ccc(C(=O)c2ccccc2)cc1 [Example 278, N-[5-(1H-benzimidazol-2-yl)bicyclo[3.1.1]hept-1-yl]-4-benzoylbenz-amide] | 99.9
8 | O=C(Cc1ccc(Cl)s1)NC1CCCC(c2nc3ccccc3[nH]2)C1 (stereo not drawn) [Example 131, N-[3-(1H-benzimidazol-2-yl)cyclohexyl]-2-(5-chloro-2-thienyl)acetamide triflouroacetate] | 101
9 | Cn1ccnc1C(=O)NC1CCCC(c2nc3ccccc3[nH]2)C1 (stereo not drawn) [Example 164, N-[3-(1H-benzimidazol-2-yl)cyclohexyl]-1-methyl-1H-imidazole-2-carboxamide triflouroacetate] | 106
10 | COc1ccc(C2(C(=O)NC3CCCC(c4nc5ccccc5[nH]4)C3)CC2)cc1 (stereo not drawn) [Example 132, N-[3-(1H-benzimidazol-2-yl)cyclohexyl]-1-(4-methoxyphenyl) cyclopropane-carboxamide triflouroacetate] | 78
11 | COc1cccc2c1OCC(C(=O)NC1CCCC(c3nc4ccccc4[nH]3)C1)C2 (stereo not drawn) [Example 133, N-[3-(1H-benzimidazol-2-yl)cyclohexyl]-8-methoxychrom-ane-3-carboxamide triflouroacetate] | 85
12 | O=C(N[C@@H]1CCC[C@H](c2nc3ccccc3[nH]2)C1)c1ccc2scnc2c1 [Example 216, N-[(1R,3S)-3-(1H-benzimidazol-2-yl)cyclohexyl]-1,3-benzothiazole-5-carboxamide triflouroacetate] | 86
13 | Cc1ccn2cc(CCC(=O)NC3CCCC(c4nc5ccccc5[nH]4)C3)nc2c1 (stereo not drawn) [Example 156, N-[3-(1H-benzimidazol-2-yl)cyclohexyl]-3-(7-methylimidazo [1,2-a]pyridin-2-yl)propanamide triflouroacetate] | 53
14 | O=C(N[C@@H]1CCC[C@H](c2nc3ccccc3[nH]2)C1)c1ccc2cc[nH]c2c1 [Example 203, N-[(1R,3S)-3-(1H-benzimidazol-2-yl)cyclohexyl]-1H-indole-6-carboxamide triflouroacetate] | 109
15 | CC(C)C1=NOC(C(=O)NC2CCCC(c3nc4ccccc4[nH]3)C2)C1 (stereo not drawn) [Example 97, N-[3-(1H-benzimidazol-2-yl)cyclohexyl]-3-isopropyl-4,5-dihydroisoxazole-5-carboxamide triflouroacetate] | 83
16 | COc1cc(C(=O)NC2CCCC(c3nc4ccccc4[nH]3)C2)cc2c1OCCO2 (stereo not drawn) [Example 139, N-[3-(1H-benzimidazol-2-yl)cyclohexyl]-8-methoxy-2,3-dihydro-1,4-benzodioxine-6-carboxamide triflouroacetate] | 105
17 | Cc1c(C(=O)N[C@@H]2CCC[C@H](c3nc4ccccc4[nH]3)C2)oc2ccccc12 [Example 189, N-[(1R,3S)-3-(1H-benzimidazol-2-yl)cyclohexyl]-3-methyl-1-benzofuran-2-carboxamide triflouroacetate] | 65
18 | O=C(NC12CCCC(c3nc4cc(C(F)(F)F)ccc4[nH]3)(C1)C2)c1ccc2c(c1)CCCO2 [Example 276, N-{5-[5-(trifluoromethyl)-1H-benzimidazol-2-yl]bicyclo[3.1.1]hept-1-yl}chromane-6-carboxamide] | 84.7
19 | CCn1nc(C(C)C)cc1C(=O)NC1CCCC(c2nc3ccccc3[nH]2)C1 (stereo not drawn) [Example 146, N-[3-(1H-benzimidazol-2-yl)cyclohexyl]-1-ethyl-3-isopropyl-1H-pyrazole-5-carboxamide triflouroacetate] | 61
20 | COc1cc(OC)cc(C(=O)NC2CCCC(c3nc4ccc(OC)cc4[nH]3)C2)c1 (stereo not drawn) [Example 69, 3,5-dimethoxy-N-[3-(6-methoxy-1H-benzimidazol-2-yl)cyclohexyl] benzamide] | 105
21 | Cc1cc(C(=O)N[C@@H]2CCC[C@H](c3nc4ccccc4[nH]3)C2)n(C)n1 [Example 177, N-[(1R,3S)-3-(1H-benzimidazol-2-yl)cyclohexyl]-1,3-dimethyl-1H-pyrazole-5-carboxamide HCl] | 73
22 | O=C(N[C@@H]1CCC[C@H](c2nc3ccccc3[nH]2)C1)[C@@H]1CCc2ccccc2O1 [Example 218, (2S)-N-[(1R,3S)-3-(1H-benzimidazol-2-yl)cyclohexyl] chromane-2-carboxamide triflouroacetate] | 96
23 | N#CCC(=O)NC1CCCC(c2nc3ccccc3[nH]2)C1 (stereo not drawn) [Example 102, N-[3-(1H-benzimidazaol-2-yl)cyclohexyl]-2-cyanoacetamide triflouroacetate] | 93
24 | COc1cc(OC)cc(C(=O)NC2CCCC(c3nc4ccc(C#N)cc4[nH]3)C2)c1 (stereo not drawn) [Example 68, N-[3-(6-cyano-1H-benzimidazol-2-yl)cyclohexyl]-3,5-dimethoxybenz-amide] | 89
25 | Cc1cccc2nc(C3CCCC(NC(=O)c4ccc5c(c4)OCCO5)C3)[nH]c12 (stereo not drawn) [Example 79, N-[3-(7-methyl-1H-benzimidazol-2-yl)cyclohexyl]-2,3-dihydro-1,4-benzodioxine-6-carboxamide HCl] | 102
26 | N#Cc1ccc2nc([C@H]3CCC[C@@H](NC(=O)c4ccc5c(c4)OCCO5)C3)[nH]c2c1 [Example 172, N-[(1R,3S)-3-(6-cyano-1H-benzimidazol-2-yl)cyclohexyl]-2,3-dihydro-1,4-benzodioxine-6-carboxamide HCl] | 90
27 | Cc1ccoc1C(=O)NC1CCCC(c2nc3ccccc3[nH]2)C1 (stereo not drawn) [Example 93, N-[3-(1H-benzimidazol-2-yl)cyclohexyl]-3-methyl-2-furamide triflouroacetate] | 24

Reference: patent US20100029615A1, “BENZIMIDAZOLE DERIVATIVES” (priority 2006, published 2010)
